Results: BindingDB's records for patent US20230382915 (Deciphera Pharmaceuticals, 2023)

Columns and labels:
[1] = target: T1, Eukaryotic translation initiation factor 2-alpha kinase 3 (Homo sapiens, UniProt Q9NZJ5); assay: Biochemical Assay for PERK
T1 sequence (Q9NZJ5 whole entry): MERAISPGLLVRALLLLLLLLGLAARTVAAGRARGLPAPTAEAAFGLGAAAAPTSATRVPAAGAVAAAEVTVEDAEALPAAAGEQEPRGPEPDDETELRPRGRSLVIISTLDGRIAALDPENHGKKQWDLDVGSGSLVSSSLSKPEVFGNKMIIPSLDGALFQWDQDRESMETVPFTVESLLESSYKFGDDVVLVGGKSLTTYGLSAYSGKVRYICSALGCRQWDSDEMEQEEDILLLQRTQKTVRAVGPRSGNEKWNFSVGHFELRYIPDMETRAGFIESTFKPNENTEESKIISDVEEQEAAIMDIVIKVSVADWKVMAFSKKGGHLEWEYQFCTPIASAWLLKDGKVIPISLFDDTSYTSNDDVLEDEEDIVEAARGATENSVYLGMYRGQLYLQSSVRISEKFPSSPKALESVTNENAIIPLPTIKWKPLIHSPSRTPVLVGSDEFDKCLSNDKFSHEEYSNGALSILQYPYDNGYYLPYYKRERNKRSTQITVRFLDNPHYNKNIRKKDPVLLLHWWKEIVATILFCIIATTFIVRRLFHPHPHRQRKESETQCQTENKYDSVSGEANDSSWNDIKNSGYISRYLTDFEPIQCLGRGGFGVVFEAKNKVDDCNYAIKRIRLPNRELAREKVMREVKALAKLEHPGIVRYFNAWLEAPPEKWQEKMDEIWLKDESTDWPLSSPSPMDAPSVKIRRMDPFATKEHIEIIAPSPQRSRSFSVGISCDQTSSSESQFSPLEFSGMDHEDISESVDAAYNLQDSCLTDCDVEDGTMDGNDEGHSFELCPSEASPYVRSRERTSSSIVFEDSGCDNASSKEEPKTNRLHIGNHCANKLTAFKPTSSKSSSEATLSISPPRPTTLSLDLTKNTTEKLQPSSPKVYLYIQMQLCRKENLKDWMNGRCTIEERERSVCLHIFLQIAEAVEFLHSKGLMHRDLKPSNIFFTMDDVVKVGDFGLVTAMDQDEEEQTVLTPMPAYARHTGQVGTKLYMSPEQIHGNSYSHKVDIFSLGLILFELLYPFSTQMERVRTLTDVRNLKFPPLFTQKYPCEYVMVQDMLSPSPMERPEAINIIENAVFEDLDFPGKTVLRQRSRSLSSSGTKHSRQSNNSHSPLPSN
Method: Activity of PERK kinase was determined spectroscopically using a coupled pyruvate kinase/lactate dehydrogenase assay that continuously monitors the ATP hydrolysis-dependent oxidation of NADH (e.g., Schindler et al. Science (2000) 289: 1938-1942). Assays were conducted in 384-well plates ([…] final volume) using 10 nM PERK (from Beryllium), 0.25 mg/mL Myelin Basic Protein substrate, 1.5 units pyruvate kinase, 2.1 units lactate dehydrogenase, 1 mM phosphoenol pyruvate, 0.28 mM NADH and 1 mM ATP in assay buffer (100 mM Tris, pH 7.5, 15 mM MgCl2, 0.5 mM DTT, 0.004% (w/v) BSA, and 0.004% Triton X-100). Inhibition of PERK was measured by adding serial diluted test compound (final assay concentration of 1% DMSO). A decrease in absorption at 340 nm was monitored continuously for 6 hours at 30° C. on a multi-mode microplate reader (BioTek). The reaction rate was calculated using the 2-3 h time frame. The reaction rate at each concentration of compound was converted to percent inhibition using controls (i.e., reaction with no test compound and reaction with a known inhibitor) and IC50 values were calculated using software routines in Prism (GraphPad software).

[2] = target: eIF-2-alpha kinase GCN2 (Homo sapiens, UniProt Q9P2K8); assay: Biochemical Assay for GCN2
Sequence of eIF-2-alpha kinase GCN2 (Q9P2K8 whole entry): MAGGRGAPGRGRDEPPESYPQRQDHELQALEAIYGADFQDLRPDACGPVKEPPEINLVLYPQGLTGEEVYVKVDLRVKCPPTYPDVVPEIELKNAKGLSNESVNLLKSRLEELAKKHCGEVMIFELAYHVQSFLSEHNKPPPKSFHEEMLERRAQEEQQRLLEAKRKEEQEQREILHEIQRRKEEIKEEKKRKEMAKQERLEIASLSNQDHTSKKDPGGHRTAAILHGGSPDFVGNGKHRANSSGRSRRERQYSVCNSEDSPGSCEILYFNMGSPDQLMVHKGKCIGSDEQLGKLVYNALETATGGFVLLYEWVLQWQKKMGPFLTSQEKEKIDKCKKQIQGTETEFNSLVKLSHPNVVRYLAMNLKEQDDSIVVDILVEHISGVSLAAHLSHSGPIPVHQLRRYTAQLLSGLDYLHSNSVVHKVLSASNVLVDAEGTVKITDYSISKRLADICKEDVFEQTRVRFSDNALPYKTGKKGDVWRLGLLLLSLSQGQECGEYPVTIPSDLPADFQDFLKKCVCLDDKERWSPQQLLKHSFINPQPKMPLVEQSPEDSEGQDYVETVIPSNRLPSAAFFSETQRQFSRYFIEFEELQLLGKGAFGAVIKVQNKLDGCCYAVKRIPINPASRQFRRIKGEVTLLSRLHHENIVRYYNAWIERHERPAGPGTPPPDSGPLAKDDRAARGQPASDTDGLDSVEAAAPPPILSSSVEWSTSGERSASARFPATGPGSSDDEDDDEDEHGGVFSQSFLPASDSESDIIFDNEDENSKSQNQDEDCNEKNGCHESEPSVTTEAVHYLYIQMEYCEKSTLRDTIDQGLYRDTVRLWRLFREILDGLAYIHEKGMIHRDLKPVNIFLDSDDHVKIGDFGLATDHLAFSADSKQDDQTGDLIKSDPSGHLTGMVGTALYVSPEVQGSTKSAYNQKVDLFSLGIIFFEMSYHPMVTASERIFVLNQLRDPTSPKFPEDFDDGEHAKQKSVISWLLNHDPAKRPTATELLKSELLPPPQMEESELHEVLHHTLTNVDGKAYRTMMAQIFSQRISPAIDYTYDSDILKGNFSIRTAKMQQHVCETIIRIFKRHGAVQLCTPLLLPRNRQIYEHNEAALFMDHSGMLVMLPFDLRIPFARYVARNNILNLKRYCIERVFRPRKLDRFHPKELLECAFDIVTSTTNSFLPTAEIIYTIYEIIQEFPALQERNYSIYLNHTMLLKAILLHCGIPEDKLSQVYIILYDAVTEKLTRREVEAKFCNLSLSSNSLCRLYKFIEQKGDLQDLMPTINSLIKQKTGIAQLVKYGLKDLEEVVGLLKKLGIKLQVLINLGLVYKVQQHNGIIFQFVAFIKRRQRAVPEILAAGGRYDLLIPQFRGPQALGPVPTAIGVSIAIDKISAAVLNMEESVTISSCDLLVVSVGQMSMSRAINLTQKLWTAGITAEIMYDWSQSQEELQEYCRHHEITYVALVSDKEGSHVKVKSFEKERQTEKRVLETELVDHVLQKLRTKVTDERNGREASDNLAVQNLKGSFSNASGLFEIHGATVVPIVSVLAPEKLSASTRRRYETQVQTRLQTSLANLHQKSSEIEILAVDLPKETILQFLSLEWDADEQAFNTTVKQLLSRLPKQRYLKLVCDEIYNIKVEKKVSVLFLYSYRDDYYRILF
Method: Activity of GCN2 kinase was determined using a TR-FRET kinase activity assay (e.g. Riddle et al. Analytical Biochemistry (2006) 356(1) 108-116). Assays were conducted in 384-well plates (13 μL assay volume) using 2 nM GCN2 (Carna Biosciences), 130 nM GFP-EIf2α (Invitrogen), 0.2 mg/mL E. coli tRNA (sigma) and 1 mM ATP in kinase buffer (Invitrogen). Inhibition of GCN2 was measured by adding serial diluted test compound (final assay concentration of 0.5% DMSO) followed by a 3-hour incubation. Tb-peIF2α (pSer52) antibody (Invitrogen) (2 nM final assay concentration) in kinase buffer containing EDTA (final assay concentration of 20 mM) was added. After a 60 min incubation at room temperature, TR-FRET was monitored using an excitation wavelength of 340 nm and emission wavelengths of 490 nm and 520 nm. The emission ratio (520/490) at each compound concentration of was converted to percent inhibition using controls (i.e., reaction with no test compound and reaction with a known inhibitor) and IC50 values were calculated by fitting a four-parameter sigmoidal curve to the data using Prism (GraphPad software).

Row | Structure (SMILES) | IC50 [1] [nM] | IC50 [2] [nM]
1 | Nc1nccc2scc(-c3cccc(NS(=O)(=O)c4cc(Cl)cc(CO)c4Cl)c3F)c12 [US20230382915, Example 11] | < 100 | 
2 | Nc1nccc2occ(-c3cccc(NS(=O)(=O)c4cc(Cl)cc(CO)c4Cl)c3F)c12 [US20230382915, Example 12] | < 100 | 
3 | CN1CCC(n2cc(-c3cccc(NS(=O)(=O)c4cc(Cl)cc(CO)c4Cl)c3F)c3c(N)ncnc32)CC1 [US20230382915, Example 17] | < 100 | < 100
